Experimental data taken from patent publication US20220160712A1, “METHODS OF TREATING RHEUMATOID ARTHRITIS AND FOR PREDICTING THE RESPONSE TO METHOTREXATE” (CHAN ZUCKERBERG BIOHUB, INC., priority 2020, published 2022).

System: gut microbiome
Test: RA patients on oral MTX: 16S-seq and metagenomic sequencing of stool at baseline and 1 month; clinical response
Type: in vivo, human
Conditions: for number of gene families differentially abundant over time: metagenomic sequencing n=17
Description: Consecutive patients from the New York University Langone Medical Center's rheumatology clinics and offices were screened for the presence of RA based on ACR criteria (Aletaha et al., 2010). After informed consent was signed, each patient's medical history (according to chart review and interview/questionnaire), diet, and medications were determined. A screening musculoskeletal examination and laboratory assessments were also performed or reviewed. All RA patients who met the study criteria were offered enrollment. The criteria for inclusion in the study required that patients meet the American College of Rheumatology/European League Against Rheumatism 2010 classification criteria for RA (Aletaha et al., 2010), including seropositivity for rheumatoid factor and/or anti-citrullinated protein antibodies, and that all subjects be age 18 years or older. New-onset RA was defined as disease duration of a minimum of 6 weeks and up to 6 months since diagnosis, and absence of any treatment with disease-modifying anti-rheumatic drugs, biologic therapy or steroids (ever). The exclusion criteria applied to all groups were as follows: recent (<3 months prior) use of any antibiotic therapy, current extreme diet (e.g., parenteral nutrition or macrobiotic diet), known inflammatory bowel disease, known history of malignancy, current consumption of probiotics, any gastrointestinal tract surgery leaving permanent residua (e.g., gastrectomy, bariatric surgery, colectomy), or significant liver, renal, or peptic ulcer disease. This study was approved by the Institutional Review Board of New York University School of Medicine protocols #09-0658 and as previously published (Scher et al., 2013). All new onset rheumatoid arthritis (NORA) patients were recruited using established protocols from a previously described study (Scher et al., 2013). Patients received oral MTX at standard of care doses as prescribed by their treating rheumatologists. Stool samples were collected at baseline and 1 month after MTX initiation and metadata were obtained at baseline and 4 months after therapy initiation. Clinical and demographic data was de-identified and recorded in RedCap by the designated study personnel. Clinical responder status (MTX-R) was defined a priori as any NORA patient whose DAS28 score was greater than 2 at baseline and improved by at least 1.8 by month 4 post-treatment. DNA was extracted from human fecal samples (n=23 patients, 46 stool samples) as previously described (Scher et al., 2013), using the MoBio Powersoil DNA extraction kit, based on cell membrane disruption by high-speed shaking in the presence of beads. The V4 hypervariable region of bacterial 16S ribosomal RNA (rRNA) was performed using a MiSeq […] platform (150-bp read length, paired-end protocol) at the New York University Genome Technology Center as previously described (Manasson et al., 2018). For each sample, fastq files are available in NCBI's Sequence Read Archive (SRA), accession number PRJNA656577.
Stool samples from 17 RA patients underwent DNA extraction using ZymoBIOMICS 96 MagBead DNA Kit (Cat #D4302) as per the manufacturer's protocol. Sequencing libraries were generated using the Nextera DNA Flex Library Kit (Illumina, #20018705) and Nextera Compatible Unique Dual Indices—Set A primers (Illumina, #20027213). Library concentrations were normalized using PicoGreen (Quant-It dsDNA; Life Technologies) and pooled for sequencing on the NovaSeq using S1 or S2 platform at the Chan Zuckerberg Biohub.
Reads that were not already demultiplexed were demultiplexed using QIIME (Caporaso et al., 2010) v1.9.1 (split_libraries_fastq.py). For all reads except NYU RA patient samples, QIIME2 (Bolyen et al., 2019)(v 2020.2) was used to trim reads, denoise the data, and create a feature table using the following commands: qiime cutadapt trim-paired, qiime dada2 denoise-paired, qiime feature-table filter-samples. […]

`CN(Cc1cnc2nc(N)nc(N)c2n1)c1ccc(C(=O)N[C@@H](CCC(=O)O)C(=O)O)cc1` [MTX, methotrexate] was tested, and the “number of MTX responders (MTX-R)” value (23 RA patients, decrease in DAS28 of ≥1.8 and continued oral MTX without added DMARDs or biologics) was 8, the “number of MTX non-responders (MTX-NR)” value (23 RA patients, same response definition) was 15 and the “number of KOs with significant differences in abundance” value (MTX-NR, q<0.25, MaAsLin2) was 5. For the same compound, the “number of gene families with significant differences in abundance” value (MTX-NR, q<0.25, MaAsLin2) was 508, the “number of gene families with significant shift” value (MTX-R, q<0.25, MaAsLin2) was 2 and the “change in Bacteroidetes over time in MTX-R relative to MTX-NR” value (baseline vs 1 month, Wilcoxon rank-sum) was “significant decrease”. The “richness, community structure, abundance of bacterial phyla, genera, or ASVs, pre- vs. post MTX” value (entire cohort n=23, baseline vs 1 month, oral MTX standard of care) was “no significant differences”, the “number of gene families differentially abundant over time” value (MaAsLin2 q-value<0.25) was 96 and the “number of gene families differentially abundant over time” value (nominal p-value<0.05) was 6,409. For the same compound, the “number of KEGG orthologs (KOs) differentially abundant” value (nominal p<0.05) was 334 and the “number of KEGG orthologs (KOs) differentially abundant” value (q<0.25) was 5.
